Results taken from US20090221095A1, “Colorimetric Screening of DNA Binding/Intercalating Agents with Gold Nanoparticle Probes” (NORTHWESTERN UNIVERSITY, priority 2005, published 2009).

How the values were obtained:
Format in all cases: binding
[1] = tested on: triplex DNA on chip surface; assay: Chip-based scanometric detection of triplex DNA binders (silver enhancement); settings: varying salt concentrations (0.1 to 0.3 M NaCl), binder 5 μM, DNA-3 150 nM
Method: (§1) For scanometric detection of duplex or triplex DNA binding molecules, Au nanoparticles (1 nM) and DNA binding molecules (5 μM) in 10 mM PBS buffer of varying NaCl concentrations were added to the microarray slide under hybridization wells (Nanosphere, Inc.). For detection of triplex binders, 150 nM DNA-3 was added. DNA hybridization proceeded for 30 min (for duplex DNA binders) or 1 h (for triplex DNA binders) in a humidity chamber. After hybridization, the slides were washed three times with 0.5 M NaNO3 containing 0.02% Tween 20. The arrays were dried using a benchtop spinner. Silver enhancement solution (Nanosphere, Inc.) was added for Au-NP signal amplification (1 mL total volume/array, 1.5-min development time for duplex DNA binding molecules and 3 min for triplex binding molecules). The reaction was terminated by washing the slides with NANOpure® water and spin-drying. Light-scattering images from the silver-enhanced chips were recorded using the high-resolution Verigene ID system (Nanosphere, Inc.).
Capture strands of synthetic oligonucleotides are patterned on a glass chip using a microarrayer. The DNA chip is then exposed to a solution containing three components: 1) complementary DNA (no nanoparticles), 2) DNA functionalized Au nanoparticles (DNA is non-complementary to the arrayed DNA) and 3) DNA binders, Scheme 4. The complementary solution-phase DNA, called DNA-3 in Scheme 2, hybridizes to the DNA on the chip surface and forms a duplex. The Au nanoparticle-bound DNA has the correct sequence to form a triplex with the surface bound duplex through sequence-specific Hoogsteen, or reverse Hoogsteen, base pairing. The triplex structure is relatively unstable at room temperature and will only form in the presence of triplex DNA binding molecules. The presence of the triplex DNA binding molecules increase the stability of the triplex, immobilizing the Au nanoparticles on the chip surface. The chip was then exposed to silver enhancement solution for further signal enhancement and then imaged using a Verigene ID scanner.
The assay was performed in the presence of two triplex binders, coralyn (CORA) and benzo[e]pyridoindole (BePI), seven duplex DNA binders, 4′,6-diamidino-2-phenylindole (DAPI), ellipticine (EIPT), amsacrine (AMSA), daunorubicin (DNR), anthraquinone-2-carboxylic acid (AQ2A), ethidium bromide (EB), and 9-aminoacridine (9-AA))., and one control (no DNA-3). Similar to the DNA duplex, the formation of the DNA triplex is a reversible process which is affected by both temperature and salt concentration. However, compared to the duplex, the stability of the triplex is much more sensitive to salt concentration. Therefore, to determine the relative binding strength of the triplex DNA binders, the assay was performed at varying salt concentrations, FIG. 7. At 0.3 M NaCl, both the strong (BePI) and weaker (CORA) triplex binders show signal.

[2] = tested on: duplex DNA between NP-1 and NP-2; assay: Naked-eye color change of NP-1/NP-2 nanoassembly at specific temperatures; settings: for color of nanoassembly: NP-1 and NP-2 1.5 nM each, intercalator 5 μM; for trend of intercalator binding affinities for DNA: from the color change with temperature
Description: This method also utilizes the aggregation-induced, red-to-blue color change associated with 13 nm Au nanoparticles. Gold nanoparticles are functionalized with one of two complementary thiol-modified oligonucleotide strands and are denoted NP-1 and NP-2. When NP-1 and NP-2 are combined, they form aggregates through a reversible DNA hybridization process. This process results in a red-to-blue color change due to a red-shifting and dampening of the nanoparticle plasmon resonance. Increasing the temperature above the melting temperature of the DNA reverses the process, and the particles dissociate with a concomitant blue-to-red color change. […] This increased stability is reflected by an increase in melting temperature. Note that the shape and breadth of the transition is almost independent of the intercalator (FIG. 4). Therefore, by monitoring the blue-to-red color transition of hybridized oligonucleotide-modified Au nanoparticles in the presence of different compounds, the relative strength of intercalator binding can be determined with the naked-eye.
In general, assay methods that can detect drug candidates by the naked eye, without resorting to any instrumentation, are convenient, and for this reason, an assay that could seem for drug candidates based on DNA intercalation would be of great interest. […] As the temperature increases, the color change from blue to red occurs at specific temperatures. At 25° C. all eight cells (one control and seven intercalators) appear light blue/purple in color. At 30° C., the nanoassemblies containing the control and weak intercalators turn red in color leaving only the nanoassemblies containing DAPI, DNR, and EB as blue/purple.

[3] = tested on: duplex DNA on chip surface; assay: Chip-based scanometric detection of duplex DNA binders (silver enhancement); settings: binder 5 μM
Method: N-Hydroxysuccinimide-activated Codelink glass microarray slides (Amersham, G. E. Healthcare) were arrayed with amine-terminated oligonucleotides (5′-TAA CAA TAA-A10-NH2-3′, Integrated DNA Technologies, Inc.) according to the manufacturer's protocol. The oligonucleotides were printed in triplicate using a GME 418 robotic pin-and-ring microarrayer (Affymetrix).
as §1
Capture strands of synthetic oligonucleotides are patterned on a glass chip using a microarrayer. The DNA chip is then exposed to DNA functionalized Au nanoparticles (complementary to the capture sequence) and a duplex DNA binder. […]
The hybridization of single stranded DNA to form duplex DNA is a reversible process and the stability of the duplex is affected by several factors such as temperature and salt concentration. […] Therefore, by performing the nanoparticle hybridization process in the presence of different duplex DNA binders as a function of temperature, the relative binding strength of duplex DNA binders can be determined.

Row | SMILES | scanometric signal [1] | color of nanoassembly ([2]; 30° C.) | color of nanoassembly ([2]; 40° C.) | trend of intercalator binding affinities for DNA [2] | signal after silver enhancement ([3]; hybridization at 30° C.) | signal after silver enhancement ([3]; temperature further increased above 30° C.)
1 | Nc1c2ccccc2nc2ccccc12 [9-AA, 9-aminoacridine] | No signal |  |  |  |  | 
2 | O=C(O)c1ccc2c(c1)C(=O)c1ccccc1C2=O [AQ2A, anthraquinone-2-carboxylic acid] | No signal |  |  |  |  | 
3 | N=C(N)c1ccc(-c2cc3ccc(C(=N)N)cc3[nH]2)cc1 [DAPI, 4′,6-diamidino-2-phenylindole] | No signal | blue/purple | turn red except the nanoassembly containing DAPI | DAPI>DNR˜EB>other intercalators | leaving the intermediate and strong DNA binders | leaving only the strong duplex DNA binder
4 | COc1cccc2c1C(=O)c1c(O)c3c(c(O)c1C2=O)C[C@@](O)(C(C)=O)C[C@@H]3O[C@H]1C[C@H](N)[C@H](O)[C@H](C)O1 [DNR, daunorubicin] | No signal | blue/purple |  | DAPI>DNR˜EB>other intercalators | leaving the intermediate and strong DNA binders | 
5 | Cc1c2ccncc2c(C)c2c1[nH]c1ccccc12 [EIPT, ellipticine] | No signal |  |  |  |  | 
